Columns and labels:
[1] = target: TcCA; details: read-out: FAM; Hepes pH 7.5, 0.1 M Na2SO4, 25 °C; 15 min pre-incubation
[2] = target: T1, VchCAγ (Vibrio cholerae, UniProt Q9KVT1); details: read-out: FAM; TRIS pH 8.3, 0.1 M Na2SO4, 25 °C; 15 min pre-incubation
T1 construct: gene VC_0058

[3] = target: T2, BpsCAβ (Burkholderia pseudomallei, UniProt Q63Y17); assay type: biochemical; details: read-out: FAM
T2 construct: gene BPSL0372

[4] = target: T3, BpsCAγ; details: read-out: FAM
T3 construct: gene BpsCAgamma

[5] = target: T4, VchCAα (Vibrio cholerae, UniProt Q9KMP6); details: read-out: FAM; Hepes pH 7.5, 0.1 M Na2SO4, 25 °C; 15 min pre-incubation
T4 construct: gene VC_A0274
T4 sequence (Q9KMP6 21-239 limits assumed): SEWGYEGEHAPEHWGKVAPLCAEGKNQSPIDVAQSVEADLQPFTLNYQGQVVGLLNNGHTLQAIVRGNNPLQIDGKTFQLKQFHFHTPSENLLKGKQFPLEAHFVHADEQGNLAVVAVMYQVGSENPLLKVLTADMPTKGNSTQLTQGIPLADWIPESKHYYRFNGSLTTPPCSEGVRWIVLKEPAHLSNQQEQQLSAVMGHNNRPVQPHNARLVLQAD

[6] = target: Can2 (Cryptococcus neoformans, UniProt Q3I4V7); assay type: biochemical; details: read-out: FAM
Chain of Can2 (Q3I4V7 entry or part of it): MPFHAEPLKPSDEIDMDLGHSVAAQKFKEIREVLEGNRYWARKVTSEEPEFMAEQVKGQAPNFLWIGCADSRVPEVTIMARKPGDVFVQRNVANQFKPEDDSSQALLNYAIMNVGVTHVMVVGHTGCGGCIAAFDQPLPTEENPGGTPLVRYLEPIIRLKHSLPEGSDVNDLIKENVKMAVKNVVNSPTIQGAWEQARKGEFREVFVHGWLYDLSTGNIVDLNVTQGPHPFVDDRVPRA

[7] = target: Carbonate dehydratase (Sulfurihydrogenibium sp. (strain YO3AOP1), UniProt B2V8E3); experiment: biochemical
[8] = target: T5, PhaCAγ; details: read-out: FAM; TRIS pH 8.3, 0.1 M Na2SO4, 25 °C; 15 min pre-incubation
T5 construct: gene PhaCA

[9] = target: T6, VchCAβ (Vibrio cholerae, UniProt A0A086SLX8); experiment: biochemical
T6 construct: gene can
T6 sequence (A0A086SLX8 1-222): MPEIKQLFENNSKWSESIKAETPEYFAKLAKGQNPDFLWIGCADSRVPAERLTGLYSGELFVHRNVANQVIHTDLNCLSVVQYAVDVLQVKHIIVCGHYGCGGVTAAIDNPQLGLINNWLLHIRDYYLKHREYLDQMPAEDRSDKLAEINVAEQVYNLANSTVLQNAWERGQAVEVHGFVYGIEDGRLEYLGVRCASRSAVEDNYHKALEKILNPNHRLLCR

[10] = target: T7, MgaCA (Malassezia globosa, UniProt A8Q1N3); assay type: biochemical; details: read-out: FAM
T7 construct: gene MGL_1814
T7 sequence (A8Q1N3 entry or part of it): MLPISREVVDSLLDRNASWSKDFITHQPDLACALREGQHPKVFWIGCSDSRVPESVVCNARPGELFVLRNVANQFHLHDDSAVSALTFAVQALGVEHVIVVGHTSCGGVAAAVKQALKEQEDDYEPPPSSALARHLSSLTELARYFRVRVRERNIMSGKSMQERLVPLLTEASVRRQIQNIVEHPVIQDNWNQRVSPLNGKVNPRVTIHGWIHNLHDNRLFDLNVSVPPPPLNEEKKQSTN

[11] = target: T8, NcoCAγ (Nostoc commune, UniProt A0A2R5FUA4); assay type: biochemical; details: TRIS pH 8.3, 0.1 M Na2SO4, 25 °C; 15 min pre-incubation; read-out: FAM
T8 construct: gene NIES4072_30780
T8 sequence (A0A2R5FUA4 entry or part of it): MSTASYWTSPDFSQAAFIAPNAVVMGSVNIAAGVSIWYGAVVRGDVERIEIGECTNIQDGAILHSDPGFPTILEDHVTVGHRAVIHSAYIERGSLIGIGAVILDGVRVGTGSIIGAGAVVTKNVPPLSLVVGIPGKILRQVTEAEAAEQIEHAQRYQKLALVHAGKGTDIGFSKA

[12] = target: T9, SazCA (Sulfurihydrogenibium azorense, UniProt C1DTU5); assay type: biochemical; details: read-out: FAM
T9 construct: gene SULAZ_0541
T9 sequence (C1DTU5 entry or part of it): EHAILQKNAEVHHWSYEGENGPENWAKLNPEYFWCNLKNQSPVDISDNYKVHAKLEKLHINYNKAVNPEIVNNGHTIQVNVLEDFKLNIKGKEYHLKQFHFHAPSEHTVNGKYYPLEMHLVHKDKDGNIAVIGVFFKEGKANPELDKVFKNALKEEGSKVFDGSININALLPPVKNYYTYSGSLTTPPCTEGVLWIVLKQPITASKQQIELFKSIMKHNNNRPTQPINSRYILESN

[13] = target: T10, TweCAδ (Conticribra weissflogii, UniProt Q5U9J1); assay type: biochemical; details: Hepes pH 7.5, 0.1 M Na2SO4, 25 °C; 15 min pre-incubation; read-out: FAM
T10 construct: gene ca1
T10 sequence (Q5U9J1 entry or part of it): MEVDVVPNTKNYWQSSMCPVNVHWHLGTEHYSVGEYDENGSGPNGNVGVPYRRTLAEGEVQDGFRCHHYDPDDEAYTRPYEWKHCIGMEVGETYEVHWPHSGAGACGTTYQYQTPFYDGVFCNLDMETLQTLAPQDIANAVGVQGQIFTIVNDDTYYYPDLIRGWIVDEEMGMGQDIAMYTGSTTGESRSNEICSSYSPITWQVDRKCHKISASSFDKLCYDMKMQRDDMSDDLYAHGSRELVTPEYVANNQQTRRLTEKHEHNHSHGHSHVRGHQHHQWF

[14] = target: CpsCAγ; details: read-out: FAM; TRIS pH 8.3, 0.1 M Na2SO4, 25 °C; 15 min pre-incubation
Chain of CpsCAγ (UPI00051A3E8B entry or part of it): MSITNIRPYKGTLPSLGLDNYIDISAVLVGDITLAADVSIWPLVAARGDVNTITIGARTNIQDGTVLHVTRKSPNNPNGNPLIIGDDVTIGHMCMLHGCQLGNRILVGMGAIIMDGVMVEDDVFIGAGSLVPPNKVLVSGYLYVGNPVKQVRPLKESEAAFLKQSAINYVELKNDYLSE

[15] = target: T11, PfCA (Plasmodium falciparum, UniProt Q8IHW5); assay type: biochemical; details: Hepes pH 7.5, 0.1 M Na2SO4, 25 °C; 15 min pre-incubation; read-out: FAM
T11 construct: gene PF3D7_1140000
T11 sequence (Q8IHW5 entry or part of it): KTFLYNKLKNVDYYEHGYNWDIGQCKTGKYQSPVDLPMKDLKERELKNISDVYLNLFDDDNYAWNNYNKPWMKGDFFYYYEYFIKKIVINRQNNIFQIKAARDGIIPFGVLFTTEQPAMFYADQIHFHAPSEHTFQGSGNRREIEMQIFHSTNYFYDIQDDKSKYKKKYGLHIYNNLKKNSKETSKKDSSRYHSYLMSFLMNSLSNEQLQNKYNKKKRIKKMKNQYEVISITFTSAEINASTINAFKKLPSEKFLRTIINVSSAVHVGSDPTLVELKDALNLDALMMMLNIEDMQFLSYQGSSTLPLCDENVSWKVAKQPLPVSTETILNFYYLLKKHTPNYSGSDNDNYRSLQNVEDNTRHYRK

[16] = target: T12, CgNce103 (Nakaseomyces glabratus, UniProt Q6FTL6); assay type: biochemical; details: read-out: FAM
T12 construct: gene NCE103
T12 sequence (Q6FTL6 entry or part of it): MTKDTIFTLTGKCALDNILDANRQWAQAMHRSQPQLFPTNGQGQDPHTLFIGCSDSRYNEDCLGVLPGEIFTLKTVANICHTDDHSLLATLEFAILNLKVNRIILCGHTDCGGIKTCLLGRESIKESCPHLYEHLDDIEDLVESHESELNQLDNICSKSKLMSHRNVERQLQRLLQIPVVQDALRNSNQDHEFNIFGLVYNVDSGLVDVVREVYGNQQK

T1 sequence (Q9KVT1 1-184): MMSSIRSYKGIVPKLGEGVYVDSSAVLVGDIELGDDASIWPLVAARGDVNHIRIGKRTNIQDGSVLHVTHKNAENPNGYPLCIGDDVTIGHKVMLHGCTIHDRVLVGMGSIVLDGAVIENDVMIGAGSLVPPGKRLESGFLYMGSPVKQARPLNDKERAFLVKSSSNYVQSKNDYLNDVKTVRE
T2 sequence (Q63Y17 1-256): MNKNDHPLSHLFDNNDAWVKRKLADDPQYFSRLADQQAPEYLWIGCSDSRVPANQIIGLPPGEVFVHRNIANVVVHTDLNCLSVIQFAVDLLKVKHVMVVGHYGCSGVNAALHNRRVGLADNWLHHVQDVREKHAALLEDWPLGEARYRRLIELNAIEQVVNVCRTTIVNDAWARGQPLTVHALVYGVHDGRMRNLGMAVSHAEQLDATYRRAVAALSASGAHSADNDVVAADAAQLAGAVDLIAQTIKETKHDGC

NC(N)=Nc1nc(CSCCC(N)=NS(N)(=O)=O)cs1 [FAM, Famotidine]
Ki [1]: 5.71 µM | Ki [2]: 5.32 µM | Ki [3]: 8.27 µM | Ki [4]: 8.29 µM | Ki [5]: 0.0723 µM | Ki [6]: 0.107 µM | Ki [7]: 0.23 µM | Ki [8]: 0.0668 µM | Ki [9]: 83.9 µM | Ki [10]: 42.1 µM | Ki [11]: 1.69 µM | Ki [12]: 0.124 µM | Ki [13]: 0.408 µM | Ki [14]: 0.089 µM | Ki [15]: 0.142 µM | Ki [16]: 0.0136 µM
